Measurements as given in patent US20230227427A1, “IL-17A MODULATORS” (SANOFI, priority 2010, published 2023).

Target: T1, human recombinant IL-17A (Homo sapiens, UniProt Q16552)
T1 construct: purchased R&D Systems 7955-IL/CF
T1 sequence (Q16552 24-155): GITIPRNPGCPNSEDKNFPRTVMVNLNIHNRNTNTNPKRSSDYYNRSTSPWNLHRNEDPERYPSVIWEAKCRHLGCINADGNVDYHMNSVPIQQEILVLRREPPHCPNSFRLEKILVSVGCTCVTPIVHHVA
Experiment: IL-17A AlphaLISA assay (block binding of IL-17A to its receptor IL-17RA)
Conditions: compounds pre-incubated with the IL-17A for 30 min (indicated by * in Table A); read-out: AlphaLISA pIC50 (converted)
Outline: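 PBS with 0.05% Tween-20 and 0.1% BSA. IL-17A stock 7.5 nM, IL-17RA/Fc stock 5 nM; compound–cytokine pre-incubation 24 h at RT, or 30 min where marked, then 90 min with receptor. pIC50 from 4-parameter logistic AlphaLISA signal, normalised to DMSO and 6 μM reference inhibitor.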

IC50 [nM] | SMILES
316 | Cc1noc(C)c1-c1ccc(NC(=O)[C@@H](NC(=O)c2ccc3n2CCNC3)C2CCCCC2)nc1 [Example 130, (S)—N-(1-Cyclohexyl-2-((5-(3,5-dimethylisoxazol-4-yl)pyridin-2-yl)amino)-2-oxoethyl)-1,2,3,4-tetrahydropyrrolo[1,2-a]pyrazine-6-carboxamide]
63.1 | Cc1cnn(C)c1-c1ccc(NC(=O)[C@@H](NC(=O)c2conc2C)[C@H]2CC[C@H](C)CC2)nc1 [Example 131, N—((S)-2-((5-(1,4-Dimethyl-1H-pyrazol-5-yl)pyridin-2-yl)amino)-1-((1r,4S)-4-methylcyclohexyl)-2-oxoethyl)-3-methylisoxazole-4-carboxamide]
79.4 | Cc1cnn(C)c1-c1ccc(NC(=O)[C@@H](NC(=O)c2ccnn2C)C2CCCCCC2)nc1 [Example 132, (S)—N-(1-Cycloheptyl-2-((5-(1,4-dimethyl-1H-pyrazol-5-yl)pyridin-2-yl)amino)-2-oxoethyl)-1-methyl-1H-pyrazole-5-carboxamide]
251 | Cc1cnn(C)c1-c1ccc(NC(=O)[C@@H](NC(=O)c2cnnn2C)C2CCCCCC2)nc1 [Example 133, (S)—N-(1-Cycloheptyl-2-((5-(1,4-dimethyl-1H-pyrazol-5-yl)pyridin-2-yl)amino)-2-oxoethyl)-1-methyl-1H-1,2,3-triazole-5-carboxamide]
200 | Cc1cnn(C)c1-c1ccc(NC(=O)[C@@H](NC(=O)c2nonc2C)C2CCCCCC2)nc1 [Example 134, (S)—N-(1-Cycloheptyl-2-((5-(1,4-dimethyl-1H-pyrazol-5-yl)pyridin-2-yl)amino)-2-oxoethyl)-4-methyl-1,2,5-oxadiazole-3-carboxamide]
398 | Cc1noc(C)c1-c1ncc(NC(=O)[C@@H](NC(=O)c2ccnn2C)[C@H]2CC[C@H](C)CC2)cn1 [Example 135, N—((S)-2-((2-(3,5-dimethylisoxazol-4-yl)pyrimidin-5-yl)amino)-1-((1r,4S)-4-methylcyclohexyl)-2-oxoethyl)-1-methyl-1H-pyrazole-5-carboxamide]
63.1 | Cc1cnn(C)c1-c1ccc(NC(=O)[C@@H](NC(=O)c2conc2C)C2CCCCCC2)nc1 [Example 136, (S)—N-(1-Cycloheptyl-2-((5-(1,4-dimethyl-1H-pyrazol-5-yl)pyridin-2-yl)amino)-2-oxoethyl)-3-methylisoxazole-4-carboxamide]
200 | COCc1nocc1C(=O)N[C@H](C(=O)Nc1ccc(-c2c(C)cnn2C)cn1)C1CCCCCC1 [Example 137, (S)—N-(1-Cycloheptyl-2-((5-(1,4-dimethyl-1H-pyrazol-5-yl)pyridin-2-yl)amino)-2-oxoethyl)-3-(methoxymethyl)isoxazole-4-carboxamide]
251 | Cc1noc(C)c1-c1ccc(NC(=O)[C@@H](NC(=O)c2ccnn2C)[C@H]2CC[C@H](C)CC2)cn1 [Example 138, N—((S)-2-((6-(3,5-dimethylisoxazol-4-yl)pyridin-3-yl)amino)-1-((1r,4S)-4-methylcyclohexyl)-2-oxoethyl)-1-methyl-1H-pyrazole-5-carboxamide]
126 | CCn1nccc1C(=O)N[C@H](C(=O)Nc1ccc(-c2c(C)c[n+]([O-])cc2C)cn1)[C@H]1CC[C@H](C)CC1 [Example 139, 6-((S)-2-(1-Ethyl-1H-pyrazole-5-carboxamido)-2-((1r,4S)-4-methylcyclohexyl)acetamido)-3′,5′-dimethyl-[3,4′-bipyridine]1′-oxide]
631 | CCc1nocc1C(=O)N[C@H](C(=O)Nc1ccc(-c2ncncc2C)cn1)[C@H]1CC[C@H](C)CC1 [Example 140, 3-Ethyl-N—((S)-1-((1r,4S)-4-methylcyclohexyl)-2-((5-(5-methylpyrimidin-4-yl)pyridin-2-yl)amino)-2-oxoethyl)isoxazole-4-carboxamide]
158 | CCn1nncc1C(=O)N[C@H](C(=O)Nc1ccc(-c2c(C)cnn2C)cn1)C1CCCCCC1 [Example 141, (S)—N-(1-Cycloheptyl-2-((5-(1,4-dimethyl-1H-pyrazol-5-yl)pyridin-2-yl)amino)-2-oxoethyl)-1-ethyl-1H-1,2,3-triazole-5-carboxamide]
398 | COCc1noc(C)c1-c1ccc(NC(=O)[C@@H](NC(=O)c2ccnn2C)[C@H]2CC[C@H](C)CC2)nc1 [Example 142, N—((S)-2-((5-(3-(methoxymethyl)-5-methylisoxazol-4-yl)pyridin-2-yl)amino)-1-((1r,4S)-4-methylcyclohexyl)-2-oxoethyl)-1-methyl-1H-pyrazole-5-carboxamide]
794 | CCc1nocc1C(=O)N[C@H](C(=O)Nc1ccc(-c2c(C)cnn2C)cn1)C1CCC(F)(F)CC1 [Example 144, (S)—N-(1-(4,4-difluorocyclohexyl)-2-((5-(1,4-dimethyl-1H-pyrazol-5-yl)pyridin-2-yl)amino)-2-oxoethyl)-3-ethylisoxazole-4-carboxamide]
398 | Cc1cnn(C)c1-c1ccc(NC(=O)[C@@H](NC(=O)c2ccnn2C)[C@H]2CC[C@H](C)CC2)cn1 [Example 145, N—((S)-2-((6-(1,4-dimethyl-1H-pyrazol-5-yl)pyridin-3-yl)amino)-1-((1r,4S)-4-methylcyclohexyl)-2-oxoethyl)-1-methyl-1H-pyrazole-5-carboxamide]
501 | Cc1cc(NC(=O)[C@@H](NC(=O)c2ccnn2C)[C@H]2CC[C@H](C)CC2)ncc1-c1ccnn1C [Example 146, 1-methyl-N—((S)-2-((4-methyl-5-(1-methyl-1H-pyrazol-5-yl)pyridin-2-yl)amino)-1-((1r,4S)-4-methylcyclohexyl)-2-oxoethyl)-1H-pyrazole-5-carboxamide]
398 | CCn1nccc1C(=O)N[C@H](C(=O)Nc1cnc(-c2c(C)cnn2C)nc1)[C@H]1CC[C@H](C)CC1 [Example 147, N—((S)-2-((2-(1,4-dimethyl-1H-pyrazol-5-yl)pyrimidin-5-yl)amino)-1-((1r,4S)-4-methylcyclohexyl)-2-oxoethyl)-1-ethyl-1H-pyrazole-5-carboxamide]
200 | Cc1nnn(C)c1-c1ccc(NC(=O)[C@@H](NC(=O)c2ccnn2C)C2CCCCCC2)nc1 [Example 148, (S)—N-(1-cycloheptyl-2-((5-(1,4-dimethyl-1H-1,2,3-triazol-5-yl)pyridin-2-yl)amino)-2-oxoethyl)-1-methyl-1H-pyrazole-5-carboxamide]
79.4 | CCn1nccc1C(=O)N[C@H](C(=O)Nc1ccc(-c2c(C)nnn2C)cn1)C1CCCCCC1 [Example 149, (S)—N-(1-cycloheptyl-2-((5-(1,4-dimethyl-1H-1,2,3-triazol-5-yl)pyridin-2-yl)amino)-2-oxoethyl)-1-ethyl-1H-pyrazole-5-carboxamide]
398 | COCc1onc(C)c1-c1ccc(NC(=O)[C@@H](NC(=O)c2ccnn2C)C2CCCCCC2)nc1 [Example 150, (S)—N-(1-cycloheptyl-2-((5-(5-(methoxymethyl)-3-methylisoxazol-4-yl)pyridin-2-yl)amino)-2-oxoethyl)-1-methyl-1H-pyrazole-5-carboxamide]
794 | Cc1nccc(-c2ccc(NC(=O)[C@@H](NC(=O)c3ccnn3C)[C@H]3CC[C@H](C)CC3)nc2)c1C [Example 152, N—((S)-2-((2′,3′-dimethyl-[3,4′-bipyridin]-6-yl)amino)-1-((1r,4S)-4-methylcyclohexyl)-2-oxoethyl)-1-methyl-1H-pyrazole-5-carboxamide]
398 | Cc1cc(-c2ccc(NC(=O)[C@@H](NC(=O)c3ccnn3C)[C@H]3CC[C@H](C)CC3)nc2)c(C)cn1 [Example 153, N—((S)-2-((2′,5′-dimethyl-[3,4′-bipyridin]-6-yl)amino)-1-((1r,4S)-4-methylcyclohexyl)-2-oxoethyl)-1-methyl-1H-pyrazole-5-carboxamide]
251 | CCn1nccc1C(=O)N[C@H](C(=O)Nc1ccc(-c2c(C)cnn2C)nc1)[C@H]1CC[C@H](C)CC1 [Example 154, N—((S)-2-((6-(1,4-dimethyl-1H-pyrazol-5-yl)pyridin-3-yl)amino)-1-((1r,4S)-4-methylcyclohexyl)-2-oxoethyl)-1-ethyl-1H-pyrazole-5-carboxamide]
100 | CCc1nocc1C(=O)N[C@H](C(=O)Nc1ccc(-c2c(C)cnn2C)nc1)[C@H]1CC[C@H](C)CC1 [Example 155, N—((S)-2-((6-(1,4-dimethyl-1H-pyrazol-5-yl)pyridin-3-yl)amino)-1-((1r,4S)-4-methylcyclohexyl)-2-oxoethyl)-3-ethylisoxazole-4-carboxamide]
398 | Cc1cnn(C)c1-c1ncc(NC(=O)[C@@H](NC(=O)c2ccnn2C)[C@H]2CC[C@H](C)CC2)cn1 [Example 156, N—((S)-2-((2-(1,4-dimethyl-1H-pyrazol-5-yl)pyrimidin-5-yl)amino)-1-((1r,4S)-4-methylcyclohexyl)-2-oxoethyl)-1-methyl-1H-pyrazole-5-carboxamide]
251 | CCn1nnc(C)c1-c1ccc(NC(=O)[C@@H](NC(=O)c2ccnn2C)C2CCCCCC2)nc1 [Example 157, (S)—N-(1-cycloheptyl-2-((5-(1-ethyl-4-methyl-1H-1,2,3-triazol-5-yl)pyridin-2-yl)amino)-2-oxoethyl)-1-methyl-1H-pyrazole-5-carboxamide]
631 | Cc1noc(C)c1-c1cnc(NC(=O)[C@@H](NC(=O)c2ccnn2C)C2CCCCCC2)cn1 [Example 158, (S)—N-(1-cycloheptyl-2-((5-(3,5-dimethylisoxazol-4-yl)pyrazin-2-yl)amino)-2-oxoethyl)-1-methyl-1H-pyrazole-5-carboxamide]
